Source: patent US11096985B2, “Antimicrobial peptides, their variants and uses” (priority 2015, dated 2021)
Where a SMILES comes first, the peptide text is derived from it. [ ]: non-standard residue; d: D form.

Experiments:
[1] = system: clinical strains of Staphylococcus aureus; test: MIC, clinical strains of S. aureus; assay type: cell-based; set-up: unit: μg/ml; conditions: microdilution, Muller Hinton broth-cation adjusted, 0.02% BSA, 0.2% acetic acid
Summary of the method: (§1)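 MIC = lowest peptide concentration showing no visual growth after 20–24 h at 37° C. Range 0.125–128 μg/ml; bacteria at 5.0×10^5 cfu/ml in MH broth, polypropylene microdilution format; yeasts in potato dextrose broth.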

[2] = system: clinical strains of Pseudomonas aeruginosa; test: MIC, clinical strains of P. aeruginosa; assay type: cell-based; set-up: unit: μg/ml; conditions: microdilution, Muller Hinton broth-cation adjusted, 0.02% BSA, 0.2% acetic acid
Summary of the method: as §1

[3] = system: clinical strains of Klebsiella pneumoniae; test: MIC, clinical strains of K. pneumoniae; assay type: cell-based; set-up: unit: μg/ml; conditions: microdilution, Muller Hinton broth-cation adjusted, 0.02% BSA, 0.2% acetic acid
Summary of the method: as §1

[4] = system: clinical strains of Enterobacter cloacae; test: MIC, clinical strains of Enterobacter cloacae; assay type: cell-based; set-up: unit: μg/ml; conditions: microdilution, Muller Hinton broth-cation adjusted, 0.02% BSA, 0.2% acetic acid
Summary of the method: as §1

[5] = system: clinical strains of C. parapsilosis; test: MIC, clinical yeast strains, C. parapsilosis; assay type: cell-based, Candida parapsilosis; set-up: unit: μg/ml
Summary of the method: as §1

[6] = system: clinical strains of Proteus mirabilis; test: MIC, clinical strains of Proteus mirabilis; assay type: cell-based; set-up: unit: µg/mL; conditions: microdilution, Muller Hinton broth-cation adjusted, 0.02% BSA, 0.2% acetic acid
Summary of the method: as §1

[7] = system: clinical strains of Serratia marcescens; test: MIC, clinical strains of Serratia marcescens; assay type: cell-based; set-up: unit: µg/mL; conditions: microdilution, Muller Hinton broth-cation adjusted, 0.02% BSA, 0.2% acetic acid
Summary of the method: as §1

[8] = system: clinical strains of Streptococcus pneumoniae; test: MIC, clinical strains of Streptococcus pneumoniae; assay type: cell-based; set-up: unit: µg/mL; conditions: microdilution, Muller Hinton broth-cation adjusted, 0.02% BSA, 0.2% acetic acid
Summary of the method: as §1

[9] = system: clinical strains of C. glabrata; test: MIC, clinical yeast strains, C. glabrata; assay type: cell-based, Candida glabrata; set-up: unit: μg/ml
Summary of the method: as §1

[10] = system: clinical strains of Escherichia coli; test: MIC, clinical strains of E. coli; assay type: cell-based; set-up: unit: μg/ml; conditions: microdilution, Muller Hinton broth-cation adjusted, 0.02% BSA, 0.2% acetic acid
Summary of the method: as §1

[11] = system: clinical strains of Candida albicans; test: MIC, clinical yeast strains, Candida albicans; assay type: cell-based; set-up: unit: μg/ml
Summary of the method: as §1

[12] = system: clinical strains of C. quillermondiae; test: MIC, clinical yeast strains, C. quillermondiae; assay type: cell-based; conditions: C. quillermondiae clinical yeast strain 1
Summary of the method: as §1

[13] = Staphylococcus aureus clinical strain 1
[14] = Staphylococcus aureus clinical strain 2
[15] = Staphylococcus aureus clinical strain 3
[16] = Staphylococcus aureus clinical strain 4
[17] = Staphylococcus aureus clinical strain 5
[18] = Pseudomonas aeruginosa clinical strain 1
[19] = Pseudomonas aeruginosa clinical strain 2
[20] = Pseudomonas aeruginosa clinical strain 3
[21] = Pseudomonas aeruginosa clinical strain 4
[22] = Pseudomonas aeruginosa clinical strain 5
[23] = Klebsiella pneumoniae clinical strain 1
[24] = Klebsiella pneumoniae clinical strain 2
[25] = Klebsiella pneumoniae clinical strain 3
[26] = Klebsiella pneumoniae clinical strain 4
[27] = Klebsiella pneumoniae clinical strain 5
[28] = Enterobacter cloacae clinical strain 1
[29] = Enterobacter cloacae clinical strain 2
[30] = Enterobacter cloacae clinical strain 3
[31] = Enterobacter cloacae clinical strain 4
[32] = Enterobacter cloacae clinical strain 5
[33] = C. parapsilosis clinical yeast strain 1
[34] = C. parapsilosis clinical yeast strain 2
[35] = C. parapsilosis clinical yeast strain 3
[36] = C. parapsilosis clinical yeast strain 4
[37] = Proteus mirabilis clinical strain 1
[38] = Proteus mirabilis clinical strain 2
[39] = Proteus mirabilis clinical strain 3
[40] = Proteus mirabilis clinical strain 4
[41] = Proteus mirabilis clinical strain 5
[42] = Serratia marcescens clinical strain 1
[43] = Serratia marcescens clinical strain 2
[44] = Serratia marcescens clinical strain 3
[45] = Serratia marcescens clinical strain 4
[46] = Serratia marcescens clinical strain 5
[47] = Streptococcus pneumoniae clinical strain 1
[48] = Streptococcus pneumoniae clinical strain 2
[49] = Streptococcus pneumoniae clinical strain 3
[50] = Streptococcus pneumoniae clinical strain 4
[51] = Streptococcus pneumoniae clinical strain 5
[52] = C. glabrata clinical yeast strain 1
[53] = C. glabrata clinical yeast strain 2
[54] = C. glabrata clinical yeast strain 3
[55] = C. glabrata clinical yeast strain 4
[56] = Escherichia coli clinical strain 1
[57] = Escherichia coli clinical strain 2
[58] = Escherichia coli clinical strain 3
[59] = Escherichia coli clinical strain 4
[60] = Escherichia coli clinical strain 5
[61] = Candida albicans clinical yeast strain 1
[62] = Candida albicans clinical yeast strain 2
[63] = Candida albicans clinical yeast strain 3
[64] = Candida albicans clinical yeast strain 4
[65] = Candida albicans clinical yeast strain 5

## CC(C)C[C@@H](NC(=O)[C@@H](CCCCN)NC(=O)[C@@H](CCCCN)NC(=O)[C@@H](Cc1ccccc1)NC(=O)[C@@H](CC(C)C)NC(=O)[C@@H](Cc1c[nH]c2ccccc12)NC(=O)[C@@H](CCCNC(=N)N)NC(=O)[C@@H](Cc1c[nH]c2ccccc12)NC(=O)[C@@H](CCCCN)NC(=O)[C@@H](CCCNC(=N)N)NC(=O)[C@H](N)CCCCN)C(=O)O [Chain310D] (H-[dK][dR][dK][dW][dR][dW][dL][dF][dK][dK][dL]-OH)
[1]; [13]
  Minimum inhibitory concentration: 8
[1]; [14]
  Minimum inhibitory concentration: 16
[1]; [15]
  Minimum inhibitory concentration: 8
[1]; [16]
  Minimum inhibitory concentration: 8
[1]; [17]
  Minimum inhibitory concentration: 4
[2]; [18]
  Minimum inhibitory concentration: 8
[2]; [19]
  Minimum inhibitory concentration: 16
[2]; [20]
  Minimum inhibitory concentration: 16
[2]; [21]
  Minimum inhibitory concentration: 8
[2]; [22]
  Minimum inhibitory concentration: 4
[3]; [23]
  Minimum inhibitory concentration: 64
[3]; [24]
  Minimum inhibitory concentration: 64
[3]; [25]
  Minimum inhibitory concentration: 128
[3]; [26]
  Minimum inhibitory concentration: 64
[3]; [27]
  Minimum inhibitory concentration: 32
[4]; [28]
  Minimum inhibitory concentration: 128
[4]; [29]
  Minimum inhibitory concentration: 64
[4]; [30]
  Minimum inhibitory concentration: 16
[4]; [31]
  Minimum inhibitory concentration: 8
[4]; [32]
  Minimum inhibitory concentration: 16
[5]; [33]
  Minimum inhibitory concentration: 64
[5]; [34]
  Minimum inhibitory concentration: 64
[5]; [35]
  Minimum inhibitory concentration: 64
[5]; [36]
  Minimum inhibitory concentration: 16
[6]; [37]
  Minimum inhibitory concentration: >128
[6]; [38]
  Minimum inhibitory concentration: >128
[6]; [39]
  Minimum inhibitory concentration: >128
[6]; [40]
  Minimum inhibitory concentration: >128
[6]; [41]
  Minimum inhibitory concentration: >128
[7]; [42]
  Minimum inhibitory concentration: >128
[7]; [43]
  Minimum inhibitory concentration: >128
[7]; [44]
  Minimum inhibitory concentration: >128
[7]; [45]
  Minimum inhibitory concentration: >128
[7]; [46]
  Minimum inhibitory concentration: >128
[8]; [47]
  Minimum inhibitory concentration: 128
[8]; [48]
  Minimum inhibitory concentration: 128
[8]; [49]
  Minimum inhibitory concentration: 128
[8]; [50]
  Minimum inhibitory concentration: 128
[8]; [51]
  Minimum inhibitory concentration: 64
[9]; [52]
  Minimum inhibitory concentration: 16
[9]; [53]
  Minimum inhibitory concentration: 16
[9]; [54]
  Minimum inhibitory concentration: 128
[9]; [55]
  Minimum inhibitory concentration: 128
[10]; [56]
  Minimum inhibitory concentration: 4
[10]; [57]
  Minimum inhibitory concentration: 32
[10]; [58]
  Minimum inhibitory concentration: 16
[10]; [59]
  Minimum inhibitory concentration: 16
[10]; [60]
  Minimum inhibitory concentration: 16
[11]; [61]
  Minimum inhibitory concentration: 16
[11]; [62]
  Minimum inhibitory concentration: 16
[11]; [63]
  Minimum inhibitory concentration: 16
[11]; [64]
  Minimum inhibitory concentration: 16
[11]; [65]
  Minimum inhibitory concentration: 16
[12]
  Minimum inhibitory concentration: 8

## CC(C)C[C@@H](NC(=O)[C@H](N)CCCCN)C(=O)N[C@H](CCCCN)C(=O)N[C@H](Cc1c[nH]c2ccccc12)C(=O)N[C@H](Cc1ccccc1)C(=O)N[C@H](Cc1c[nH]c2ccccc12)C(=O)N[C@H](CC(C)C)C(=O)N[C@H](Cc1ccccc1)C(=O)N[C@H](CCCCN)C(=O)N[C@H](CCCCN)C(=O)N[C@H](CCCNC(=N)N)C(=O)O [Chain311D] (H-[dK][dL][dK][dW][dF][dW][dL][dF][dK][dK][dR]-OH)
[1]; [13]
  Minimum inhibitory concentration: 1
[1]; [14]
  Minimum inhibitory concentration: 1
[1]; [15]
  Minimum inhibitory concentration: 1
[1]; [16]
  Minimum inhibitory concentration: 1
[1]; [17]
  Minimum inhibitory concentration: 1
[2]; [18]
  Minimum inhibitory concentration: 16
[2]; [19]
  Minimum inhibitory concentration: 8
[2]; [20]
  Minimum inhibitory concentration: 16
[2]; [21]
  Minimum inhibitory concentration: 8
[2]; [22]
  Minimum inhibitory concentration: 4
[3]; [23]
  Minimum inhibitory concentration: 8
[3]; [24]
  Minimum inhibitory concentration: 8
[3]; [25]
  Minimum inhibitory concentration: 4
[3]; [26]
  Minimum inhibitory concentration: 8
[3]; [27]
  Minimum inhibitory concentration: 4
[4]; [28]
  Minimum inhibitory concentration: 4
[4]; [29]
  Minimum inhibitory concentration: 4
[4]; [30]
  Minimum inhibitory concentration: 4
[4]; [31]
  Minimum inhibitory concentration: 4
[4]; [32]
  Minimum inhibitory concentration: 2
[5]; [33]
  Minimum inhibitory concentration: 16
[5]; [34]
  Minimum inhibitory concentration: 8
[5]; [35]
  Minimum inhibitory concentration: 8
[5]; [36]
  Minimum inhibitory concentration: 8
[6]; [37]
  Minimum inhibitory concentration: >128
[6]; [38]
  Minimum inhibitory concentration: 128
[6]; [39]
  Minimum inhibitory concentration: 128
[6]; [40]
  Minimum inhibitory concentration: >128
[6]; [41]
  Minimum inhibitory concentration: >128
[7]; [42]
  Minimum inhibitory concentration: >128
[7]; [43]
  Minimum inhibitory concentration: >128
[7]; [44]
  Minimum inhibitory concentration: >128
[7]; [45]
  Minimum inhibitory concentration: >128
[7]; [46]
  Minimum inhibitory concentration: >128
[8]; [47]
  Minimum inhibitory concentration: 16
[8]; [48]
  Minimum inhibitory concentration: 8
[8]; [49]
  Minimum inhibitory concentration: 16
[8]; [50]
  Minimum inhibitory concentration: 4
[8]; [51]
  Minimum inhibitory concentration: 8
[9]; [52]
  Minimum inhibitory concentration: 16
[9]; [53]
  Minimum inhibitory concentration: 16
[9]; [54]
  Minimum inhibitory concentration: 8
[9]; [55]
  Minimum inhibitory concentration: 64
[10]; [56]
  Minimum inhibitory concentration: 2
[10]; [57]
  Minimum inhibitory concentration: 2
[10]; [58]
  Minimum inhibitory concentration: 1
[10]; [59]
  Minimum inhibitory concentration: 0.5
[10]; [60]
  Minimum inhibitory concentration: 1
[11]; [61]
  Minimum inhibitory concentration: 8
[11]; [62]
  Minimum inhibitory concentration: 8
[11]; [63]
  Minimum inhibitory concentration: 8
[11]; [64]
  Minimum inhibitory concentration: 16
[11]; [65]
  Minimum inhibitory concentration: 16
[12]
  Minimum inhibitory concentration: 4
